How the values were obtained:
MCF7 (breast cancer) = experiment: NCI 60-cell one-dose antiproliferative screen; format: cell-based, human; conditions: one dose 10 μM
SK-MEL-2 (melanoma) = experiment: NCI 60-cell one-dose antiproliferative screen; format: cell-based, human; conditions: one dose 10 μM
CCRF-CEM (leukemia) = experiment: NCI 60-cell one-dose antiproliferative screen; format: cell-based, human; conditions: one dose 10 μM
HOP-92 (NSC lung cancer) = experiment: NCI 60-cell one-dose antiproliferative screen; format: cell-based, human; conditions: one dose 10 μM
U251 (CNS cancer) = experiment: NCI 60-cell one-dose antiproliferative screen; format: cell-based, human; conditions: one dose 10 μM
IGROV1 (ovarian cancer) = experiment: NCI 60-cell one-dose antiproliferative screen; format: cell-based, human; conditions: one dose 10 μM
HT29 (colon cancer) = experiment: NCI 60-cell one-dose antiproliferative screen; format: cell-based, human; conditions: one dose 10 μM
ACHN (renal cancer) = experiment: NCI 60-cell one-dose antiproliferative screen; format: cell-based, human; conditions: one dose 10 μM
RXF 393 (renal cancer) = experiment: NCI 60-cell one-dose antiproliferative screen; format: cell-based, human; conditions: one dose 10 μM
HCT-15 (colon cancer) = experiment: NCI 60-cell one-dose antiproliferative screen; format: cell-based, human; conditions: one dose 10 μM
HCT-116 (colon cancer) = experiment: NCI 60-cell one-dose antiproliferative screen; format: cell-based, human; conditions: one dose 10 μM
UO-31 (renal cancer) = experiment: NCI 60-cell one-dose antiproliferative screen; format: cell-based, human; conditions: one dose 10 μM
[1] = system: 60 human tumor cell lines; experiment: NCI 60-cell one-dose antiproliferative screen, whole panel; format: cell-based
[2] = system: NCI-H322M (NSC lung cancer); experiment: NCI 60-cell one-dose antiproliferative screen; format: cell-based, human; conditions: one dose 10 μM
EKVX (NSC lung cancer) = experiment: NCI 60-cell one-dose antiproliferative screen; format: cell-based, human; conditions: one dose 10 μM
UACC-62 (melanoma) = experiment: NCI 60-cell one-dose antiproliferative screen; format: cell-based, human; conditions: one dose 10 μM
[3] = system: NCI-H23 (NSC lung cancer); experiment: NCI 60-cell one-dose antiproliferative screen; format: cell-based, human; conditions: one dose 10 μM
OVCAR-5 (ovarian cancer) = experiment: NCI 60-cell one-dose antiproliferative screen; format: cell-based, human; conditions: one dose 10 μM
OVCAR-8 (ovarian cancer) = experiment: NCI 60-cell one-dose antiproliferative screen; format: cell-based, human; conditions: one dose 10 μM
A498 (renal cancer) = experiment: NCI 60-cell one-dose antiproliferative screen; format: cell-based, human; conditions: one dose 10 μM
SNB-75 (CNS cancer) = experiment: NCI 60-cell one-dose antiproliferative screen; format: cell-based, human; conditions: one dose 10 μM
KM12 (colon cancer) = experiment: NCI 60-cell one-dose antiproliferative screen; format: cell-based, human; conditions: one dose 10 μM
SN12C (renal cancer) = experiment: NCI 60-cell one-dose antiproliferative screen; format: cell-based, human; conditions: one dose 10 μM
M14 (melanoma) = experiment: NCI 60-cell one-dose antiproliferative screen; format: cell-based, human; conditions: one dose 10 μM
[4] = system: MDA-MB-231/ATCC (breast cancer); experiment: NCI 60-cell one-dose antiproliferative screen; format: cell-based, human; conditions: one dose 10 μM
TK-10 (renal cancer) = experiment: NCI 60-cell one-dose antiproliferative screen; format: cell-based, human; conditions: one dose 10 μM
SNB-19 (CNS cancer) = experiment: NCI 60-cell one-dose antiproliferative screen; format: cell-based, human; conditions: one dose 10 μM
SK-OV-3 (ovarian cancer) = experiment: NCI 60-cell one-dose antiproliferative screen; format: cell-based, human; conditions: one dose 10 μM
[5] = system: NCI/ADR-RES (ovarian cancer); experiment: NCI 60-cell one-dose antiproliferative screen; format: cell-based, human; conditions: one dose 10 μM
PC-3 (prostate cancer) = experiment: NCI 60-cell one-dose antiproliferative screen; format: cell-based, human; conditions: one dose 10 μM
MALME-3M (melanoma) = experiment: NCI 60-cell one-dose antiproliferative screen; format: cell-based, human; conditions: one dose 10 μM
COLO-205 (colon cancer) = experiment: NCI 60-cell one-dose antiproliferative screen; format: cell-based, human; conditions: one dose 10 μM
[6] = system: NCI-H226 (NSC lung cancer); experiment: NCI 60-cell one-dose antiproliferative screen; format: cell-based, human; conditions: one dose 10 μM
SK-MEL-28 (melanoma) = experiment: NCI 60-cell one-dose antiproliferative screen; format: cell-based, human; conditions: one dose 10 μM
[7] = system: A549/ATCC (NSC lung cancer); experiment: NCI 60-cell one-dose antiproliferative screen; format: cell-based, human; conditions: one dose 10 μM
DU-145 (prostate cancer) = experiment: NCI 60-cell one-dose antiproliferative screen; format: cell-based, human; conditions: one dose 10 μM
HCC-2998 (colon cancer) = experiment: NCI 60-cell one-dose antiproliferative screen; format: cell-based, human; conditions: one dose 10 μM
[8] = system: NCI-H460 (NSC lung cancer); experiment: NCI 60-cell one-dose antiproliferative screen; format: cell-based, human; conditions: one dose 10 μM
MDA-MB-435 (melanoma) = experiment: NCI 60-cell one-dose antiproliferative screen; format: cell-based, human; conditions: one dose 10 μM
OVCAR-3 (ovarian cancer) = experiment: NCI 60-cell one-dose antiproliferative screen; format: cell-based, human; conditions: one dose 10 μM
HS 578T (breast cancer) = experiment: NCI 60-cell one-dose antiproliferative screen; format: cell-based, human; conditions: one dose 10 μM
RPMI-8226 (leukemia) = experiment: NCI 60-cell one-dose antiproliferative screen; format: cell-based, human; conditions: one dose 10 μM
T-47D (breast cancer) = experiment: NCI 60-cell one-dose antiproliferative screen; format: cell-based, human; conditions: one dose 10 μM
[9] = system: NCI-H522 (NSC lung cancer); experiment: NCI 60-cell one-dose antiproliferative screen; format: cell-based, human; conditions: one dose 10 μM
CAKI-1 (renal cancer) = experiment: NCI 60-cell one-dose antiproliferative screen; format: cell-based, human; conditions: one dose 10 μM
786-0 (renal cancer) = experiment: NCI 60-cell one-dose antiproliferative screen; format: cell-based, human; conditions: one dose 10 μM
SW-620 (colon cancer) = experiment: NCI 60-cell one-dose antiproliferative screen; format: cell-based, human; conditions: one dose 10 μM
SF-539 (CNS cancer) = experiment: NCI 60-cell one-dose antiproliferative screen; format: cell-based, human; conditions: one dose 10 μM
HOP-62 (NSC lung cancer) = experiment: NCI 60-cell one-dose antiproliferative screen; format: cell-based, human; conditions: one dose 10 μM
OVCAR-4 (ovarian cancer) = experiment: NCI 60-cell one-dose antiproliferative screen; format: cell-based, human; conditions: one dose 10 μM
LOX IMIV (melanoma) = experiment: NCI 60-cell one-dose antiproliferative screen; format: cell-based, human; conditions: one dose 10 μM
UACC-257 (melanoma) = experiment: NCI 60-cell one-dose antiproliferative screen; format: cell-based, human; conditions: one dose 10 μM
SF-268 (CNS cancer) = experiment: NCI 60-cell one-dose antiproliferative screen; format: cell-based, human; conditions: one dose 10 μM
SF-295 (CNS cancer) = experiment: NCI 60-cell one-dose antiproliferative screen; format: cell-based, human; conditions: one dose 10 μM
[10] = system: MDA-MB-468 (breast cancer); experiment: NCI 60-cell one-dose antiproliferative screen; format: cell-based, human; conditions: one dose 10 μM

Question: `CC(=O)NNc1ccc2nnc(-c3ccccc3)n2n1` [Compound 6a, N′-(3-Phenyl-[1,2,4]triazolo[4,3-b]pyridazin-6-yl)acetohydrazide] was tested. Which GI% (MCF7 (breast cancer)) did it give?
Answer: Its GI% is “— (— GI% is below 15%)”.

Question: What about the GI% (SK-MEL-2 (melanoma)) of the same compound?
Answer: The GI% was “— (— GI% is below 15%)”.

Question: And the GI% (CCRF-CEM (leukemia))?
Answer: The GI% was “— (— GI% is below 15%)”.

Question: And the GI% (HOP-92 (NSC lung cancer))?
Answer: The GI% was “— (— GI% is below 15%)”.

Question: And the GI% (U251 (CNS cancer))?
Answer: The GI% was “— (— GI% is below 15%)”.

Question: What about the GI% (IGROV1 (ovarian cancer)) of the same compound?
Answer: Its GI% is “— (— GI% is below 15%)”.

Question: What about the GI% (HT29 (colon cancer)) of the same compound?
Answer: The GI% was “— (— GI% is below 15%)”.

Question: And the GI% (ACHN (renal cancer))?
Answer: The GI% was “— (— GI% is below 15%)”.

Question: And the GI% (RXF 393 (renal cancer))?
Answer: The GI% was “— (— GI% is below 15%)”.

Question: And the GI% (HCT-15 (colon cancer))?
Answer: The GI% was “— (— GI% is below 15%)”.

Question: What about the GI% (HCT-116 (colon cancer)) of the same compound?
Answer: The GI% was “— (— GI% is below 15%)”.

Question: What about the GI% (UO-31 (renal cancer)) of the same compound?
Answer: Its GI% is “— (— GI% is below 15%)”.

Question: And the inhibition at 10 µM ([1]; Homo sapiens, 60 cell, read-out: Mean inhibition (mean GI%))?
Answer: Its inhibition at 10 µM is < 15%.

Question: And the “cytotoxic activity in words” value ([1]; NCI-60 panel, one dose 10 μM)?
Answer: The value was “demolished cytotoxicity”.

Question: What about the GI% [2] of the same compound?
Answer: Its GI% is “— (— GI% is below 15%)”.

Question: And the GI% (EKVX (NSC lung cancer))?
Answer: Its GI% is “— (— GI% is below 15%)”.

Question: And the GI% (UACC-62 (melanoma))?
Answer: Its GI% is “— (— GI% is below 15%)”.

Question: What about the GI% [3] of the same compound?
Answer: Its GI% is “— (— GI% is below 15%)”.

Question: What about the GI% (OVCAR-5 (ovarian cancer)) of the same compound?
Answer: Its GI% is “— (— GI% is below 15%)”.

Question: What about the GI% (OVCAR-8 (ovarian cancer)) of the same compound?
Answer: Its GI% is “— (— GI% is below 15%)”.

Question: What about the GI% (A498 (renal cancer)) of the same compound?
Answer: The GI% was “— (— GI% is below 15%)”.

Question: And the GI% (SNB-75 (CNS cancer))?
Answer: The GI% was “— (— GI% is below 15%)”.

Question: What about the GI% (KM12 (colon cancer)) of the same compound?
Answer: The GI% was “— (— GI% is below 15%)”.

Question: And the GI% (SN12C (renal cancer))?
Answer: The GI% was “— (— GI% is below 15%)”.

Question: What about the GI% (M14 (melanoma)) of the same compound?
Answer: Its GI% is “— (— GI% is below 15%)”.

Question: What about the GI% [4] of the same compound?
Answer: The GI% was “— (— GI% is below 15%)”.

Question: And the GI% (TK-10 (renal cancer))?
Answer: Its GI% is “— (— GI% is below 15%)”.

Question: What about the GI% (SNB-19 (CNS cancer)) of the same compound?
Answer: Its GI% is “— (— GI% is below 15%)”.

Question: What about the GI% (SK-OV-3 (ovarian cancer)) of the same compound?
Answer: Its GI% is “— (— GI% is below 15%)”.

Question: What about the GI% [5] of the same compound?
Answer: Its GI% is “— (— GI% is below 15%)”.

Question: What about the GI% (PC-3 (prostate cancer)) of the same compound?
Answer: Its GI% is “— (— GI% is below 15%)”.

Question: And the GI% (MALME-3M (melanoma))?
Answer: Its GI% is “— (— GI% is below 15%)”.

Question: What about the GI% (COLO-205 (colon cancer)) of the same compound?
Answer: Its GI% is “— (— GI% is below 15%)”.

Question: What about the GI% [6] of the same compound?
Answer: The GI% was “— (— GI% is below 15%)”.

Question: And the GI% (SK-MEL-28 (melanoma))?
Answer: The GI% was “— (— GI% is below 15%)”.

Question: What about the GI% [7] of the same compound?
Answer: Its GI% is “— (— GI% is below 15%)”.

Question: And the GI% (DU-145 (prostate cancer))?
Answer: Its GI% is “— (— GI% is below 15%)”.

Question: What about the GI% (HCC-2998 (colon cancer)) of the same compound?
Answer: The GI% was “— (— GI% is below 15%)”.

Question: And the GI% [8]?
Answer: Its GI% is “— (— GI% is below 15%)”.

Question: And the GI% (MDA-MB-435 (melanoma))?
Answer: The GI% was “— (— GI% is below 15%)”.

Question: And the GI% (OVCAR-3 (ovarian cancer))?
Answer: The GI% was “— (— GI% is below 15%)”.

Question: And the GI% (HS 578T (breast cancer))?
Answer: Its GI% is “— (— GI% is below 15%)”.

Question: What about the GI% (RPMI-8226 (leukemia)) of the same compound?
Answer: The GI% was “— (— GI% is below 15%)”.

Question: And the GI% (T-47D (breast cancer))?
Answer: The GI% was “— (— GI% is below 15%)”.

Question: And the GI% [9]?
Answer: Its GI% is “— (— GI% is below 15%)”.

Question: And the GI% (CAKI-1 (renal cancer))?
Answer: The GI% was “— (— GI% is below 15%)”.

Question: And the GI% (786-0 (renal cancer))?
Answer: The GI% was “— (— GI% is below 15%)”.

Question: What about the GI% (SW-620 (colon cancer)) of the same compound?
Answer: Its GI% is “— (— GI% is below 15%)”.

Question: And the GI% (SF-539 (CNS cancer))?
Answer: Its GI% is “— (— GI% is below 15%)”.

Question: And the GI% (HOP-62 (NSC lung cancer))?
Answer: The GI% was “— (— GI% is below 15%)”.

Question: And the GI% (OVCAR-4 (ovarian cancer))?
Answer: Its GI% is “— (— GI% is below 15%)”.

Question: What about the GI% (LOX IMIV (melanoma)) of the same compound?
Answer: Its GI% is “— (— GI% is below 15%)”.

Question: What about the GI% (UACC-257 (melanoma)) of the same compound?
Answer: Its GI% is “— (— GI% is below 15%)”.

Question: And the GI% (SF-268 (CNS cancer))?
Answer: The GI% was “— (— GI% is below 15%)”.

Question: And the GI% (SF-295 (CNS cancer))?
Answer: The GI% was “— (— GI% is below 15%)”.

Question: And the GI% [10]?
Answer: The GI% was “— (— GI% is below 15%)”.

Reference: publication PMC11420776 (RSC Advances, 2024)
